Molecules are shown by their SMILES.

This assay has as its system Huh-7 HCV replicon cells (sub-line 5-15; genotype 1b). Description: Replicon ELISA cell based assay, genotype 1b. The note with it: Hepatitis C virus, Huh-7 genotype 1b replicon (sub-line 5-15), 72 hours. Details: species or system HCV genotype 1b. The protocol:
100 μL of medium containing 10% FCS were added to each well of clear, flat-bottomed 96 well microplates, excepting wells in the top row. Test compound was diluted in assay medium to twice the final required starting concentration from a 40 mM stock solution in DMSO. 200 μL of the starting dilution were introduced into two wells each in the top row and doubling dilutions made down the plate by the sequential transfer of 100 μL aliquots with thorough mixing in the wells; the final 100 μL were discarded. The two bottom rows were not used for compound dilutions. Huh-7 HCV replicon cell monolayers nearing confluency were stripped from growth flasks with versene-trypsin solution and the cells were resuspended in assay medium at either 2×10^5 cells/mL (sub-line 5-15; genotype 1b; Lohmann, V., Komer, F., Koch, J-O., Herian, U., Thielmann, L. And Bartenschlager, R., 1999, Science, 285, pp 110-113) or at 3×10^5 cells/mL (genotype 1a; Gu, B., Gates, A. T., Isken, O., Behrens, S. E. and Sarisky, R. T., J. Virol., 2003, 77, 5352-5359). 100 μL of cell suspension were added to all wells and the plates incubated at 37° C. for 72 hours in a 5% CO2 atmosphere.
Following incubation, the assay medium was aspirated from the plates. The cell sheets were washed by gentle immersion in phosphate buffered saline (PBS), which was then aspirated off, and fixed with acetone:methanol (1:1) for 5 minutes. Following a further wash with PBS, 100 μL of ELISA diluent (PBS+0.05% v/v Tween 20+2% w/v skimmed milk powder) were added to all wells and the plates incubated at 37° C. for 30 minutes on an orbital platform. The diluent was removed and each well then received 50 μL of a 1/200 dilution of anti-HCV specific, murine, monoclonal antibody (either Virostat #1872 or #1877), except for wells in one of the compound-free control rows which received diluent alone to act as negative controls. The plates were incubated at 37° C. for 2 hours and washed 3 times with PBS/0.05% Tween 20, then 50 μL of horseradish peroxidase conjugated, anti-mouse, rabbit polyclonal serum (Dako #P0260), diluted 1/1000, were added to all wells. The plates were incubated for a further hour, the antibody removed and the cell sheets washed 5 times with PBS/Tween and blotted dry. The assay was developed by the addition of 50 μL of ortho-phenylenediamine/peroxidase substrate in urea/citrate buffer (SigmaFast, Sigma #P-9187) to each well, and colour allowed to develop for up to 15 minutes. The reaction was stopped by the addition of 25 μL per well of 2 M sulphuric acid and the plates were read at 490 nm on a Fluostar Optima spectrophotometer.
The substrate solution was removed and the plates were washed in tap water, blotted dry and the cells stained with 5% carbol fuchsin in water for 30 minutes. The stain was discarded and the cell sheets washed, dried and examined microscopically to assess cytotoxicity.
The absorbance values from all compound-free wells that had received both primary and secondary antibodies were averaged to obtain a positive control value. The mean absorbance value from the compound-free wells that had not received the primary antibody was used to provide the negative (background) control value. The readings from the duplicate wells at each compound concentration were averaged and, after the subtraction of the mean background from all values, were expressed as a percentage of the positive control signal. The quantifiable and specific reduction of expressed protein detected by the ELISA in the presence of a drug can be used as a measure of replicon inhibition. GraFit software was used to plot the curve of percentage inhibition against compound concentration and derive the 50% inhibitory concentration (IC50) for the compound.
For orientation: A replicon is a self-replicating genome or part of one, used to study replication in cells.
The compound `COc1cc(C(=O)N2[C@@H](c3nccs3)[C@@H](c3cnccn3)C[C@@]2(Cc2ccsn2)C(=O)O)ccc1C(C)(C)C` (racemic) [Example 7, rel-(2R,4S,5R)-1-(3-Methoxy-4-tert-butylbenzoyl)-4-(pyrazin-2-yl)-2-(1,2-thiazol-3-ylmethyl)-5-(1,3-thiazol-2-yl)pyrrolidine-2-carboxylic acid] registered an IC50 of less than 100 nM.

`COc1cc(C(=O)N2[C@@H](c3ncc(C)s3)[C@@H](c3cnccn3)C[C@@]2(Cn2cccn2)C(=O)O)ccc1C(C)(C)C` (racemic) [Example 9, rel-(2R,4S,5R)-1-(3-Methoxy-4-tert-butylbenzoyl)-5-(5-methyl-1,3-thiazol-2-yl)-4-(pyrazin-2-yl)-2-(1H-pyrazol-1-ylmethyl)pyrrolidine-2-carboxylic acid] had an IC50 of less than 100 nM.

In the case of `COc1cc(C(=O)N2[C@@H](c3nccs3)[C@@H](c3cnccn3)C[C@@]2(Cn2cccn2)C(=O)O)ccc1C(C)(C)C` (racemic) [Example 11, rel-(2R,4S,5R)-1-(3-Methoxy-4-tert-butylbenzoyl)-4-(pyrazin-2-yl)-2-(1H-pyrazol-1-ylmethyl)-5-(1,3-thiazol-2-yl)pyrrolidine-2-carboxylic acid], the IC50 is less than 100 nM.

In turn, `COc1cc(C(=O)N2[C@@H](c3ncc(C)s3)[C@@H](c3cnccn3)C[C@@]2(Cc2nccs2)C(=O)O)ccc1C(C)(C)C` (racemic) [Example 13, rel-(2R,4S,5R)-1-(3-Methoxy-4-tert-butylbenzoyl)-5-(5-methyl-1,3-thiazol-2-yl)-4-(pyrazin-2-yl)-2-(1,3-thiazol-2-ylmethyl)pyrrolidine-2-carboxylic acid] had an IC50 of less than 100 nM.

The compound `COc1cc(C(=O)N2[C@@H](c3ncc(C)s3)[C@@H](c3cnccn3)C[C@@]2(Cc2cscn2)C(=O)O)ccc1C(C)(C)C` (racemic) [Example 15, rel-(2R,4S,5R)-1-(3-Methoxy-4-tert-butylbenzoyl)-5-(5-methyl-1,3-thiazol-2-yl)-4-(pyrazin-2-yl)-2-(1,3-thiazol-4-ylmethyl)pyrrolidine-2-carboxylic acid] showed a concentration for half-maximal inhibition (IC50) of less than 100 nM.

In turn, `COc1cc(C(=O)N2[C@@H](c3nccs3)[C@@H](c3cnccn3)C[C@@]2(CC(C)C)C(=O)O)ccc1C(C)(C)C` (single isomer, unassigned; enantiomer a) [Compound B, reference compound] registered an IC50 of 100 to 10000 nM.

Compound `COc1cc(C(=O)N2[C@@H](c3nccs3)[C@@H](c3cnccn3)C[C@@]2(Cc2cscn2)C(=O)O)ccc1C(C)(C)C` (single isomer, unassigned; enantiomer a) [Example 2] displayed an IC50 of less than 100 nM.

Compound `COc1cc(C(=O)N2[C@@H](c3nccs3)[C@@H](c3cnccn3)C[C@@]2(Cc2nccs2)C(=O)O)ccc1C(C)(C)C` (single isomer, unassigned; enantiomer a) [Example 4] yielded an IC50 of less than 100 nM.

Compound `COc1cc(C(=O)N2[C@@H](c3ncc(C)s3)[C@@H](c3cnccn3)C[C@@]2(Cc2ccsn2)C(=O)O)ccc1C(C)(C)C` (single isomer, unassigned; enantiomer a) [Example 6] displayed an IC50 of less than 100 nM.

Take `COc1cc(C(=O)N2[C@@H](c3nccs3)[C@@H](c3cnccn3)C[C@@]2(Cc2ccsn2)C(=O)O)ccc1C(C)(C)C` (single isomer, unassigned; enantiomer a) [Example 8]: the IC50 was less than 100 nM.

In turn, `COc1cc(C(=O)N2[C@@H](c3ncc(C)s3)[C@@H](c3cnccn3)C[C@@]2(Cn2cccn2)C(=O)O)ccc1C(C)(C)C` (single isomer, unassigned; enantiomer a) [Example 10] gave an IC50 of less than 100 nM.

Turning to `COc1cc(C(=O)N2[C@@H](c3nccs3)[C@@H](c3cnccn3)C[C@@]2(Cn2cccn2)C(=O)O)ccc1C(C)(C)C` (single isomer, unassigned; enantiomer a) [Example 12], the half-inhibitory concentration (IC50) is less than 100 nM.

Take `COc1cc(C(=O)N2[C@@H](c3ncc(C)s3)[C@@H](c3cnccn3)C[C@@]2(Cc2nccs2)C(=O)O)ccc1C(C)(C)C` (single isomer, unassigned; enantiomer a) [Example 14]: the IC50 is less than 100 nM.

`COc1cc(C(=O)N2[C@@H](c3ncc(C)s3)[C@@H](c3cnccn3)C[C@@]2(Cc2cscn2)C(=O)O)ccc1C(C)(C)C` (single isomer, unassigned; enantiomer a) [Example 16] registered an IC50 of less than 100 nM.

Usually IC50 stands for the midpoint of a concentration-inhibition curve.

For the origin of these results see US20090227600A1, “4-(PYRAZINE-2-YL) -PYRROLIDINE -2-CARBOXYLIC ACID COMPOUNDS AND DERIVATIVES THEREOF AS HEPATITIS C VIRUS INHIBITORS” (priority 2004, published 2009).
